Test results from patent publication US20110034551A1, “METHODS OF INCREASING SARCOSINE LEVELS FOR TREATING SCHIZOPHRENIA” (BG MEDICINE, INC., priority 2007, published 2011).

Legend:
plasma sarcosine = experiment: 28-day oral dosing study in rats, plasma sarcosine abundance by Polar LC/MS and GC/MS; assay type: in vivo, rat; details: 300 mg/kg daily oral, end of 28-day treatment
From the text: Fenofibrate (Sigma F-6020, Lot. 064K1584) and MPC-1 (Mitsubishi Pharma Corporation, Lot. F) were used in this study. These test substances were stored at room temperature.
Seventy-three male Crj:CD(SD)IGS rats (4.5 weeks old) were quarantined and acclimated for seven days after receipt. Two days before the initiation of dosing (Day −2), rats which had no abnormalities in clinical observation and body weight during the quarantine and acclimation period were selected and assigned to 5 groups using the stratified-by-weight randomization method to yield approximately the same mean body weights amongst the study groups.
The rats were dosed by oral gavage using a disposable stomach tube connecting to a syringe, at the dose volume of 5 mL/kg. The dosing was conducted once daily for 28 days. A control group was dosed with the vehicle only. Individual doses were calculated based on the most recently recorded body weights.
Preparation of dosing suspensions was as follows. The specified amount of test substance for each dose level was weighed and crushed with an agate mortar and a pestle. […]
Based on the total number of samples, the batches of samples were set up according to a batching scheme. Each sample was analyzed in duplicate. […] Each batch is analyzed in one analytical run. […]
All compounds eluting from the GC/MS column were detected in full scan mode. […]

[1] = target: T1, type 1 glycine transporter, GLYT1 (Rattus norvegicus, UniProt P28572); details: rat brain aggregates; Atkinson, et al. 2001; read-out: IC50 for inhibition of glycine transport; cited from earlier work
T1 construct: glycine transport in rat brain aggregates; host or cells: rat brain aggregates (endogenous protein)
T1 sequence (P28572 1-638): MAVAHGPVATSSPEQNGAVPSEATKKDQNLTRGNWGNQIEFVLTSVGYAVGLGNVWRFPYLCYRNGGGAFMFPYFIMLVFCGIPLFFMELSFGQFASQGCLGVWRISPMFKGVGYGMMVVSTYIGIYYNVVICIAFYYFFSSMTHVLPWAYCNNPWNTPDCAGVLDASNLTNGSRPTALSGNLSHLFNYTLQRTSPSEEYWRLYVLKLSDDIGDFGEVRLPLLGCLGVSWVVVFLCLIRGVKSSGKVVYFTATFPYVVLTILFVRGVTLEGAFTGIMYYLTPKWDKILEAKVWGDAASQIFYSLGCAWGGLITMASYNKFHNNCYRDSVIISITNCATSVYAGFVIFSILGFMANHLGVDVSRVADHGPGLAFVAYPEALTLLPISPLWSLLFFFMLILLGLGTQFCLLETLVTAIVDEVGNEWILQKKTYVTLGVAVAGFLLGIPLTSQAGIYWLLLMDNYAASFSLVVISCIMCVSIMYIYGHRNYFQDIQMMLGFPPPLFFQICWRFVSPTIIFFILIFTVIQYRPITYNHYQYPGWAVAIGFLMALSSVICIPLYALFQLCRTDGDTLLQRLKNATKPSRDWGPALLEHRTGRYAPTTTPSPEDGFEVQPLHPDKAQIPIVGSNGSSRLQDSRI

glycine transport = details: other studies; read-out: IC50 for inhibition of glycine transport; cited from earlier work
schizophrenia = details: 2 g/day as add-on therapy to certain antipsychotics (but not clozapine), schizophrenia patients; cited from earlier work

Row | SMILES | median fold change in plasma sarcosine abundance relative to vehicle (plasma sarcosine; GC/MS platform) | median fold change in plasma sarcosine abundance relative to vehicle (plasma sarcosine; Polar LC/MS platform) | IC50 [1] [µM] | IC50 (glycine transport) [µM] | effect on symptoms of schizophrenia (schizophrenia)
1 | CC(C)OC(=O)C(C)(C)Oc1ccc(C(=O)c2ccc(Cl)cc2)cc1 [fenofibrate] | 3.74 | 4.25 | – | – | –
2 | CNCC(=O)O [sarcosine, N-methylglycine] | – | – | 13 | ~100 | additional reductions in both positive and negative symptomatology
